The assay relates to cultured human fungiform taste papillae cells (HBO cells). Briefly: Calcium imaging of cultured human fungiform taste papillae (HBO) cells: response frequency, estimation of sweet potency. In kind it is cell-based. The text has this: In vitro cell-based assay of sweet property. Establishment and maintenance of cultures of human fungiform taste papillae cells (HBO cells): We previously established the current proprietary protocol (Ozdener, H., et al., Chem. Senses, 31(3): 279-90 (2006); Ozdener, M. H., et al., Chem. Senses, 36(7): 601-12 (2011); Ozdener, H., et al., Isolation and culture of human fungiform taste papillae cells, J. Vis. Exp., 2012 May 17;(63):e3730) which allowed us to culture human fungiform taste papillae cells retaining their physiological and molecular characteristics for more than a year. […] The human fungiform taste papillae cells were cultured according to protocols that we have published (Ozdener et al. 2006, Ozdener et al. 2011). Human fungiform taste papillae were removed and immediately placed into an isolation solution followed by enzymatic digestion. Digested fungiform papillae were then gently minced with a surgical razor and seeded on collagen type-1 coated coverslips and incubated at 36° C. in a humidified environment containing 5% CO2. The fungiform taste papillae cells were cultured in Iscove's Modified Dulbecco's medium containing 10% fetal bovine serum, 1:5 ratio of MCDB (Molecular, Cellular, and Developmental Biology) 153 medium, and a triple cocktail of antibiotics (100 U/mL/100 μg/mL, penicillin/streptomycin, and 0.5 μg/mL fungizone). Culture medium was replaced every 5-7 days by one-third of fresh culture medium. Human fungiform taste papillae cells have been maintained in culture for a period of more than 1 year without loss of viability and with retention of the molecular and biochemical properties of acutely isolated taste cells (Ozdener et al., 2011). Calcium imaging: Cultured taste cells grown for 3-4 days glass coverslips which were loaded for 30-60 min with the calcium sensitive dye fura-2 by incubating the cells in Ringer solution (145 mM NaCl, 5 mM KCl, 1 mM MgCl2, 1 mM CaCl2, 1 mM Na-pyruvate, 20 mM Hepes-Na and Cellobiose 15 mM, pH 7.2 with osmolarity adjusted to 300-310 by 5M NaCl) supplemented with […] (Molecular Probes Inc., Eugene, Oreg.) and 10 mg/ml Pluronic® F127 (Molecular Probes Inc.). Coverslips were then placed in a recording chamber and continuously bathed with Ringer solution superfusion. Stimuli were dissolved in Ringer and then pH and osmolarity readjusted if needed. Cells were exposed to sweet ([…]), bitter mixture (PTC (phenylthiocarbamide)) 2mM+Salicin 5 mM+Denatonium 2 mM), guaifenesin (GF, 3 mM) and acetaminophen (APAP, 3 mM), and various sophorolipids stimuli: sophorose, sophorolipid palmitic acid, sophorolipid stearic acid, sophorolipid oleic acid. […]

`OC[C@H]1O[C@@H](O[C@@H]2[C@@H](O)[C@H](O)[C@@H](CO)O[C@H]2O)[C@H](O)[C@@H](O)[C@@H]1O` [Sophorose, 2-O-β-D-glucopyranosyl-β-D glucopyranose]: the “%-responsive cells” value (cultured human taste cells, concentration 292 uM) is listed as 16.05%. For the same compound, the “Concentration adjusted response frequency” value (tested at 292 uM, adjusted against sucralose 5 mM) was 274.89.

Source of the values: US10799590B2, “Compositions containing a bitter tastant and at least one sophorolipid, and methods of reducing bitter taste attributed to a bitter tastant in an edible composition” (The United States of America, as Represented by the …, priority 2015, dated 2020).
